# Results reported in US20120270844A1, “METHODS FOR TREATING ALZHEIMER'S DISEASE” (aFRAXis, Inc., priority 2009, published 2012).
# Molecular target: PAK1 (Homo sapiens, UniProt Q13153)
# Test: Z'Lyte fluorescence-based (FRET) PAK kinase assay, PAK1
# Type: biochemical
# Settings: Table 1 of Example 100; 50 μM ATP
# Method: (§1) A fluorescence-based assay format is used to determine IC50 values of test compounds in vitro. Purified PAK kinase is incubated with ATP, and a test compound at various concentrations and a substrate peptide containing two fluorophores. In a second step, the reaction mix is incubated with a site-specific protease that cleaves non-phosphorylated bat not phosphorylated substrate peptide, disrupting the FRET signal generated by the two fluorophores in the cleaved peptide (Z′Lyte™ Kinase assay platform; Life Technologies).
# (§2) Reagents: 50 mM HEPES, pH 7.5; 0.01% BRIJ-35; 10 nM MgCl1; 1 mM EGTA, 2 uM substrate peptide Ser/Thr20 (proprietary Life Technologies Sequence), PAK enzyme [2.42-30.8 ng for PAK1, 0.29-6 ng for PAK2, 1.5-20 ng for PAK3 and 0.1-0.86 ng for PAK4; actual enzyme amounts depend on lot activity of the enzyme preparation]
# (§3) Test compounds are dissolved in DMSO at various concentrations; the final DMSO concentration in the assay reaction is 1%.
# (§4) ATP concentration at Kin apparent is used in the assay [50 ┌M ATP for PAK1 assay, 75 ┌M ATP for PAK2 assay, 100 μM ATP for PAK3 assay, 5 μM ATP for PAK4 assay] in a total assay volume of 10 μl. Assay reactions are incubated at room temperature for 1 hr. Following the kinase reaction, 5 μl of 1:256 dilution of development solution A (Life Technologies) is added and the reaction mix is incubated for an additional 1 hr at room temperature.
# (§5) Plates are analyzed in a standard fluorescence plate reader (Tecan or equivalent) using an excitation wavelength of 400 nn and emission wavelengths of 445 nm and 520 nm.
# (§6) Inhibition of kinase reaction is determined by emission ratio=emission@445 nm/emission@520 nm
# as §1, with “non-phosphorylated but” for “non-phosphorylated bat”, “peptide (Z'Lyte™” for “peptide (Z′Lyte™”, “assay platform” for “assay platform;”
# as §2, with “mM MgCl2;” for “nM MgCl1;”
# as §4, with “at Km” for “at Kin”, “[50 μMATP” for “[50 ┌M ATP”, “75 µM” for “75 ┌M”, “[…]” for “10 μl.”, “kinase reaction.” for “kinase reaction,”, “[…]” for “5 μl”
# (§7) Plates are analyzed in a standard fluorescence plate reader (Teem or equivalent) using an excitation wavelength of 400 nm and emission wavelengths of 445 nm and 520 nm.
# Chain of PAK1 (Q13153 whole entry): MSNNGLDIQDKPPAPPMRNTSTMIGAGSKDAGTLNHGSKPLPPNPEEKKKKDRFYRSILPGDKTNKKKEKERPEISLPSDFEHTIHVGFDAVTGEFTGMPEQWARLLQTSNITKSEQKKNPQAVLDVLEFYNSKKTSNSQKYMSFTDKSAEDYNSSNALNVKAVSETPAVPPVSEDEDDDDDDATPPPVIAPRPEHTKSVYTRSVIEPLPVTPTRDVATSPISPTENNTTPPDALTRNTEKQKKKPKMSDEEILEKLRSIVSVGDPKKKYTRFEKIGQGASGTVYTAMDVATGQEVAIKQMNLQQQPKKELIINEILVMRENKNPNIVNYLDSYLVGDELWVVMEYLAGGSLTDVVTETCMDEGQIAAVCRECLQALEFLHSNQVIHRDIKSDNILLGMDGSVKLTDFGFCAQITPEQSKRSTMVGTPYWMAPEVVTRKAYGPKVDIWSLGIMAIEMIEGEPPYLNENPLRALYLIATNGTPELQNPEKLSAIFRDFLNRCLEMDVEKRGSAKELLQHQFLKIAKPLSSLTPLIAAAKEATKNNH
row,SMILES,IC50 [µM]
1,CN1CCN(c2ccc(Nc3ncc4ccc(=O)n(Cc5cccc(F)c5)c4n3)cc2)CC1 [Compound 27],1 to 10
2,CN1CCN(c2ccc(Nc3ncc4ccc(=O)n(Cc5ccc(F)cc5)c4n3)cc2)CC1 [Compound 28],1 to 10
3,COc1ccc(Cn2c(=O)ccc3cnc(Nc4ccc(N5CCN(C)CC5)cc4)nc32)cc1 [Compound 29],> 10
4,CN1CCN(c2ccc(Nc3ncc4ccc(=O)n(Cc5ccc(Cl)cc5)c4n3)cc2)CC1 [Compound 30],1 to 10
5,COc1cccc(Cn2c(=O)ccc3cnc(Nc4ccc(N5CCN(C)CC5)cc4)nc32)c1 [Compound 33],1 to 10
6,CN1CCN(c2ccc(Nc3ncc4ccc(=O)n(Cc5ccccc5F)c4n3)cc2)CC1 [Compound 35],1 to 10
7,CN1CCN(c2ccc(Nc3ncc4ccc(=O)n(Cc5ccccn5)c4n3)cc2)CC1 [Compound 36],1 to 10
8,CN1CCN(c2ccc(Nc3ncc4ccc(=O)n(Cc5ccncc5)c4n3)cc2)CC1 [Compound 37],1 to 10
9,CN1CCN(c2ccc(Nc3ncc4ccc(=O)n(Cc5cccnc5)c4n3)cc2)CC1 [Compound 38],1 to 10
10,CSc1cccc(F)c1Cn1c(=O)ccc2cnc(Nc3ccc(N4CCN(C)CC4)cc3)nc21 [compound 99],< 1

# More lines, now with the values ahead:
row,IC50 [µM],SMILES
1,< 1,O=c1ccc2cnc(Nc3ccc(NC4CCNCC4)cc3)nc2n1Cc1ccccc1C(F)(F)F [Compound 8]
2,< 1,O=c1ccc2cnc(Nc3ccc(N4CCNCC4)cc3)nc2n1Cc1ccccc1C(F)(F)F [Compound 9]
3,< 1,CN1CCN(c2ccc(Nc3ncc4ccc(=O)n(Cc5ccccc5Cl)c4n3)cc2)CC1 [Compound 31]
4,< 1,COc1ccccc1Cn1c(=O)ccc2cnc(Nc3ccc(N4CCN(C)CC4)cc3)nc21 [Compound 34]
5,< 1,Cc1ccccc1Cn1c(=O)ccc2cnc(Nc3ccc(N4CCN(C)CC4)cc3)nc21 [Compound 39]
6,< 1,CN1CCN(c2ccc(Nc3ncc4ccc(=O)n(Cc5ccccc5C#N)c4n3)cc2)CC1 [Compound 40]
7,< 1,CN1CCN(c2ccc(Nc3ncc4ccc(=O)n(Cc5ccccc5OC(F)(F)F)c4n3)cc2)CC1 [Compound 41]
8,< 1,CN1CCN(c2ccc(Nc3ncc4ccc(=O)n(Cc5c(F)cccc5C(F)(F)F)c4n3)cc2)CC1 [compound 58]
9,< 1,Cc1cc(Nc2nccc(-c3ccc(NCCN)nc3)n2)ccc1N1CCN(C)CC1 [compound 83]
10,< 1,O=c1c(-c2ccccc2)cc2cnc(Nc3ccc(N4CCNCC4)cc3)nc2n1Cc1ccccc1C(F)(F)F [compound 94]

# Molecular target: PAK2 (Homo sapiens, UniProt Q13177)
# Sequence (Q13177 whole entry): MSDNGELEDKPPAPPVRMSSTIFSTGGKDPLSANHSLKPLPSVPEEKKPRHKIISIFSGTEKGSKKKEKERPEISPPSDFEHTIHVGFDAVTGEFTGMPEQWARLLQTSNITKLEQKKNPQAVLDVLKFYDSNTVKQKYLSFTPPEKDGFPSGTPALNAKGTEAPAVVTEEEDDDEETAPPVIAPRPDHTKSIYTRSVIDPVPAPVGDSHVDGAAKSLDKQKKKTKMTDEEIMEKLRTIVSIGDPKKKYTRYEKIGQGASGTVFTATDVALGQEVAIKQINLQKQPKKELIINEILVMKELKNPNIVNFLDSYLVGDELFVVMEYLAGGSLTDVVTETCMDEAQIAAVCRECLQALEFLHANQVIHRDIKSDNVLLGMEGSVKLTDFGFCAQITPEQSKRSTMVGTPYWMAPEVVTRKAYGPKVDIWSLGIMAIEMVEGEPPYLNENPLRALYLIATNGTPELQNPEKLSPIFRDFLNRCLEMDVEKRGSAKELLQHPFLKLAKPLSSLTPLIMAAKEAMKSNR
# Test: Z'Lyte fluorescence-based (FRET) PAK kinase assay, PAK2
# Type: biochemical
# Settings: Table 1 of Example 100; 75 μM ATP
# Method: as §1, §2, §3, §4, §5, §6
# as §1, with “non-phosphorylated but” for “non-phosphorylated bat”, “peptide (Z'Lyte™” for “peptide (Z′Lyte™”, “assay platform” for “assay platform;”
# as §2, with “mM MgCl2;” for “nM MgCl1;”
# as §4, with “at Km” for “at Kin”, “[50 μMATP” for “[50 ┌M ATP”, “75 µM” for “75 ┌M”, “[…]” for “10 μl.”, “kinase reaction.” for “kinase reaction,”, “[…]” for “5 μl”
# as §7
row,SMILES,IC50 [µM]
1,CN1CCN(c2ccc(Nc3ncc4ccc(=O)n(Cc5ccccc5)c4n3)cc2)CC1 [Compound 26],1 to 10
2,CN1CCN(c2ccc(Nc3ncc4ccc(=O)n(Cc5cccc(F)c5)c4n3)cc2)CC1 [Compound 27],1 to 10
3,CN1CCN(c2ccc(Nc3ncc4ccc(=O)n(Cc5ccc(F)cc5)c4n3)cc2)CC1 [Compound 28],> 10
4,COc1ccc(Cn2c(=O)ccc3cnc(Nc4ccc(N5CCN(C)CC5)cc4)nc32)cc1 [Compound 29],> 10
5,CN1CCN(c2ccc(Nc3ncc4ccc(=O)n(Cc5ccc(Cl)cc5)c4n3)cc2)CC1 [Compound 30],> 10
6,COc1cccc(Cn2c(=O)ccc3cnc(Nc4ccc(N5CCN(C)CC5)cc4)nc32)c1 [Compound 33],> 10
7,CN1CCN(c2ccc(Nc3ncc4ccc(=O)n(Cc5ccccc5F)c4n3)cc2)CC1 [Compound 35],1 to 10
8,CN1CCN(c2ccc(Nc3ncc4ccc(=O)n(Cc5ccccn5)c4n3)cc2)CC1 [Compound 36],> 10
9,CN1CCN(c2ccc(Nc3ncc4ccc(=O)n(Cc5ccncc5)c4n3)cc2)CC1 [Compound 37],> 10
10,CN1CCN(c2ccc(Nc3ncc4ccc(=O)n(Cc5cccnc5)c4n3)cc2)CC1 [Compound 38],> 10

# More lines, now with the values ahead:
row,IC50 [µM],SMILES
1,< 1,O=c1ccc2cnc(Nc3ccc(NC4CCNCC4)cc3)nc2n1Cc1ccccc1C(F)(F)F [Compound 8]
2,< 1,O=c1ccc2cnc(Nc3ccc(N4CCNCC4)cc3)nc2n1Cc1ccccc1C(F)(F)F [Compound 9]
3,< 1,CN1CCN(c2ccc(Nc3ncc4ccc(=O)n(Cc5ccccc5Cl)c4n3)cc2)CC1 [Compound 31]
4,1 to 10,COc1ccccc1Cn1c(=O)ccc2cnc(Nc3ccc(N4CCN(C)CC4)cc3)nc21 [Compound 34]
5,< 1,Cc1ccccc1Cn1c(=O)ccc2cnc(Nc3ccc(N4CCN(C)CC4)cc3)nc21 [Compound 39]
6,< 1,CN1CCN(c2ccc(Nc3ncc4ccc(=O)n(Cc5ccccc5C#N)c4n3)cc2)CC1 [Compound 40]
7,< 1,CN1CCN(c2ccc(Nc3ncc4ccc(=O)n(Cc5ccccc5OC(F)(F)F)c4n3)cc2)CC1 [Compound 41]

# Molecular target: PAK3 (Homo sapiens, UniProt O75914)
# Sequence (O75914 whole entry): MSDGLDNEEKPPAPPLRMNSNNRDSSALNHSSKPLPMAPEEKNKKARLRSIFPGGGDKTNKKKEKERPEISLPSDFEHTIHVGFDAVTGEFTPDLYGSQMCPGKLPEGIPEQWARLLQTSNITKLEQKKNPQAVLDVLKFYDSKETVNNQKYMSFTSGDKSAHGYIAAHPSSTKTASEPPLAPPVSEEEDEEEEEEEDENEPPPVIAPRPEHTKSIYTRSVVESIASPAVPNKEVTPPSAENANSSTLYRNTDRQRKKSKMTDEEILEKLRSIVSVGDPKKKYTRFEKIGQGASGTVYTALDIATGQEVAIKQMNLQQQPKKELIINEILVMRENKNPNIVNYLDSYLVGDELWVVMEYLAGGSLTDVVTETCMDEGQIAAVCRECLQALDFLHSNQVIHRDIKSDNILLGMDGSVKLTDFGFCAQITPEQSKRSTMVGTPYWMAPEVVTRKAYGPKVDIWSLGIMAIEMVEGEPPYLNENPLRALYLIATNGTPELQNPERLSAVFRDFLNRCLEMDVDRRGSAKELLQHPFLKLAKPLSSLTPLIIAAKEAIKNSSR
# Test: Z'Lyte fluorescence-based (FRET) PAK kinase assay, PAK3
# Type: biochemical
# Settings: Table 1 of Example 29 (own compound numbering); 100 μM ATP
# Method: as §1, §2, §3, §4, §5, §6
# as §1, with “non-phosphorylated but” for “non-phosphorylated bat”, “peptide (Z'Lyte™” for “peptide (Z′Lyte™”, “assay platform” for “assay platform;”
# as §2, with “mM MgCl2;” for “nM MgCl1;”
# as §4, with “at Km” for “at Kin”, “[50 μMATP” for “[50 ┌M ATP”, “75 µM” for “75 ┌M”, “[…]” for “10 μl.”, “kinase reaction.” for “kinase reaction,”, “[…]” for “5 μl”
# as §7
row,IC50 [µM],SMILES
1,< 1,CN1CCN(c2ccc(Nc3ncc4ccc(=O)n(Cc5ccccc5OC(F)(F)F)c4n3)cc2)CC1 [compound 97]

# Same assay, conditions: Table 1 of Example 100; 100 μM ATP
row,IC50 [µM],SMILES
1,< 1,O=c1ccc2cnc(Nc3ccc(NC4CCNCC4)cc3)nc2n1Cc1ccccc1C(F)(F)F [Compound 8]
2,< 1,O=c1ccc2cnc(Nc3ccc(N4CCNCC4)cc3)nc2n1Cc1ccccc1C(F)(F)F [Compound 9]
3,< 1,CN1CCN(c2ccc(Nc3ncc4ccc(=O)n(Cc5c(F)cccc5C(F)(F)F)c4n3)cc2)CC1 [compound 58]
4,1 to 10,Cc1cc(Nc2nccc(-c3ccc(NCCN)nc3)n2)ccc1N1CCN(C)CC1 [compound 83]
5,< 1,O=c1c(-c2ccccc2)cc2cnc(Nc3ccc(N4CCNCC4)cc3)nc2n1Cc1ccccc1C(F)(F)F [compound 94]
6,< 1,CSc1cccc(F)c1Cn1c(=O)ccc2cnc(Nc3ccc(N4CCN(C)CC4)cc3)nc21 [compound 99]

# Molecular target: PAK4 (Homo sapiens, UniProt O96013)
# Sequence (O96013 whole entry): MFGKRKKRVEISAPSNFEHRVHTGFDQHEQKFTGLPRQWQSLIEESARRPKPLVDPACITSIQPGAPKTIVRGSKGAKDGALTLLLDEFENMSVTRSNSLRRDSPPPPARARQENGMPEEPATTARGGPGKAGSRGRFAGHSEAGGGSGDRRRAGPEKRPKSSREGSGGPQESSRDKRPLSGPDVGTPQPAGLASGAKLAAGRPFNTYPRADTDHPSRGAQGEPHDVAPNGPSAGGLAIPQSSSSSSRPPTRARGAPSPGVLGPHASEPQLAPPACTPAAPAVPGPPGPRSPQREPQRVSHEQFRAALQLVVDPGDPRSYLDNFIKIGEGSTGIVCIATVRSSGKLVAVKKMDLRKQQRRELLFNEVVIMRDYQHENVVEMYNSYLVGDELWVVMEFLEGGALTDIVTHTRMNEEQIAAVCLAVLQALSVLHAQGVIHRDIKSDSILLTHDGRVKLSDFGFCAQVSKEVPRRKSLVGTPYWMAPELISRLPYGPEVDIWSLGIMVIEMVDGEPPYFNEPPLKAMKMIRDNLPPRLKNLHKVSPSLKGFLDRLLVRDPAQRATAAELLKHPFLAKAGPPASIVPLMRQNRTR
# Test: Z'Lyte fluorescence-based (FRET) PAK kinase assay, PAK4
# Type: biochemical
# Settings: Table 1 of Example 29 (own compound numbering); 5 μM ATP
# Method: as §1, §2, §3, §4, §5, §6
# as §1, with “non-phosphorylated but” for “non-phosphorylated bat”, “peptide (Z'Lyte™” for “peptide (Z′Lyte™”, “assay platform” for “assay platform;”
# as §2, with “mM MgCl2;” for “nM MgCl1;”
# as §4, with “at Km” for “at Kin”, “[50 μMATP” for “[50 ┌M ATP”, “75 µM” for “75 ┌M”, “[…]” for “10 μl.”, “kinase reaction.” for “kinase reaction,”, “[…]” for “5 μl”
# as §7
row,IC50 [µM],SMILES
1,< 1,CN1CCN(c2ccc(Nc3ncc4ccc(=O)n(Cc5ccccc5OC(F)(F)F)c4n3)cc2)CC1 [compound 97]

# Same assay, conditions: Table 1 of Example 100; 5 μM ATP
row,SMILES,IC50 [µM]
1,CN1CCN(c2ccc(Nc3ncc4ccc(=O)n(Cc5cccc(F)c5)c4n3)cc2)CC1 [Compound 27],1 to 10
2,CN1CCN(c2ccc(Nc3ncc4ccc(=O)n(Cc5ccc(F)cc5)c4n3)cc2)CC1 [Compound 28],> 10
3,COc1ccc(Cn2c(=O)ccc3cnc(Nc4ccc(N5CCN(C)CC5)cc4)nc32)cc1 [Compound 29],> 10
4,CN1CCN(c2ccc(Nc3ncc4ccc(=O)n(Cc5ccc(Cl)cc5)c4n3)cc2)CC1 [Compound 30],> 10
5,COc1cccc(Cn2c(=O)ccc3cnc(Nc4ccc(N5CCN(C)CC5)cc4)nc32)c1 [Compound 33],> 10
6,CN1CCN(c2ccc(Nc3ncc4ccc(=O)n(Cc5ccccc5F)c4n3)cc2)CC1 [Compound 35],1 to 10
7,CN1CCN(c2ccc(Nc3ncc4ccc(=O)n(Cc5ccccn5)c4n3)cc2)CC1 [Compound 36],1 to 10
8,CN1CCN(c2ccc(Nc3ncc4ccc(=O)n(Cc5ccncc5)c4n3)cc2)CC1 [Compound 37],> 10
9,CN1CCN(c2ccc(Nc3ncc4ccc(=O)n(Cc5cccnc5)c4n3)cc2)CC1 [Compound 38],> 10
10,CSc1cccc(F)c1Cn1c(=O)ccc2cnc(Nc3ccc(N4CCN(C)CC4)cc3)nc21 [compound 99],< 1

# Other lines, results leading:
row,IC50 [µM],SMILES
1,< 1,O=c1ccc2cnc(Nc3ccc(NC4CCNCC4)cc3)nc2n1Cc1ccccc1C(F)(F)F [Compound 8]
2,< 1,O=c1ccc2cnc(Nc3ccc(N4CCNCC4)cc3)nc2n1Cc1ccccc1C(F)(F)F [Compound 9]
3,1 to 10,CN1CCN(c2ccc(Nc3ncc4ccc(=O)n(Cc5ccccc5Cl)c4n3)cc2)CC1 [Compound 31]
4,1 to 10,COc1ccccc1Cn1c(=O)ccc2cnc(Nc3ccc(N4CCN(C)CC4)cc3)nc21 [Compound 34]
5,1 to 10,Cc1ccccc1Cn1c(=O)ccc2cnc(Nc3ccc(N4CCN(C)CC4)cc3)nc21 [Compound 39]
6,1 to 10,CN1CCN(c2ccc(Nc3ncc4ccc(=O)n(Cc5ccccc5C#N)c4n3)cc2)CC1 [Compound 40]
7,1 to 10,CN1CCN(c2ccc(Nc3ncc4ccc(=O)n(Cc5ccccc5OC(F)(F)F)c4n3)cc2)CC1 [Compound 41]
8,< 1,CN1CCN(c2ccc(Nc3ncc4ccc(=O)n(Cc5c(F)cccc5C(F)(F)F)c4n3)cc2)CC1 [compound 58]
9,< 1,Cc1cc(Nc2nccc(-c3ccc(NCCN)nc3)n2)ccc1N1CCN(C)CC1 [compound 83]
10,1 to 10,O=c1c(-c2ccccc2)cc2cnc(Nc3ccc(N4CCNCC4)cc3)nc2n1Cc1ccccc1C(F)(F)F [compound 94]
